Entries after “also recorded” stand apart in the source; their conditions may differ.
What was measured:
[1] = Fluorescence spectroscopy of labelled peptides with cardiolipin; assay type: binding
Description: The peptides 2′,6′-Dmt-D-Arg-[…] (SS-19) and 2′,6′-Dmt-D-Arg-Phe-Lys-Ald-NH2 (SS-37) cationic peptides carry net positive charge at neutral pH. They are expected to associate with anionic phospholipid cardiolipin based on electrostatic interaction. The interaction of small peptides with lipid membranes can been studied using fluorescence spectroscopy (Surewicz and Epand, 1984). […] Polarity-sensitive fluorescent probes were incorporated into the peptides and fluorescence spectroscopy was used to determine if SS-19, SS-37 and SS-36 interact with CL.
The peptide 2′,6′-Dmt-D-Arg-Phe-(atn)Dap-NH2 (SS-19) contains anthraniloyl incorporated into diaminopropionic acid. Anthraniloyl derivatives fluoresce in the 410-420 nm range when excited at 320-330 nm (Hiratsuka T, 1983). The quantum yield of anthraniloyl derivatives is strongly dependent on the local environment, and can increase 5-fold going from water to 80% ethanol, together with a blue shift in the emission maxima (λ max) of <10 nm (Hiratsuka T, 1983). Fluorescence emission spectrum of SS-19 (1 μM) alone, and in the presence of increasing concentrations of CL (5 to 50 μg/ml), was monitored following excitation at 320 nm using Hitachi F-4500 fluorescence spectrophotometer.
The peptide 2′,6′-Dmt-D-Arg-Phe-Lys-Ald-NH2 (SS-37) contains an additional amino acid, aladan (Ald), which has been reported to be particularly sensitive to the polarity of its environment and it has been used to probe the electrostatic character of proteins (Cohen et al., 2002). When excited at 350 nm, λmax shifts from 542 nm in water to 409 nm in heptane, accompanied by a significant increase in quantal yield (Cohen et al., 2001). Fluorescence emission spectrum of SS-37 (1 μM) alone, and in the presence of increasing concentrations of CL, was monitored following excitation at 350 nm. Addition of CL (5 to 50 μg/ml) led to a 3-fold increase in quantal yield of SS-37 as well as a clear blue shift in λ max, from 525 nm without CL to 500 nm with 50 μg/ml CL (FIG. 11B).
The peptide 2′,6′-Dmt-D-Arg-Ald-Lys-NH2 (SS-36) contains Ald in place Phe^3 in SS-02. Fluorescence emission spectrum of SS-36 (1 μM) alone, and in the presence of increasing concentrations of CL, was monitored following excitation at 350 nm. SS-36 was the most sensitive to the addition of CL, with dramatic increase in quantal yield and blue shift observed with much lower added amounts of CL (1.25 to 5 μg/ml). The λmax shifted from 525 nm without CL to 500 nm with as little as 1.25 μg/ml CL, and quantal yield increased by more than 100-fold with the addition of 5 μg/ml of CL (FIG. 11C). […] Accordingly, aromatic-cationic peptides of the present disclosure are useful for the prevention or treatment of diseases or disorders characterized by dysregulation of cardiolipin.
Changes in the emission intensity of the [atn]SS-02 and the [ald]SS-02 were measured using a Hitachi F-4500 fluorescence spectrophotometer. The different solvents used to dissolve the various phospholipids (chloroform, methanol and ethanol) had negligible effect on the fluorescence spectrum of [atn]SS-02 and [ald]SS-02. All experiments were done in low ionic solution (deionized water) to optimize electrostatic interactions of peptides with phospholipids.
Increasing concentrations of cardiolipin (5, 10, 25, and 50 μg/mL) were added to 1 μM [atn]SS-02, and the emission intensity between 350 nm and 500 nm was measured.

[2] = target: T1, cytochrome c and cardiolipin (CL) (Equus caballus, UniProt P00004); experiment: Fluorescence quenching by cytochrome c in the presence of cardiolipin; assay type: binding, horse
T1 construct: from tissue; host or cells: horse heart
T1 sequence (P00004 2-105 limits assumed): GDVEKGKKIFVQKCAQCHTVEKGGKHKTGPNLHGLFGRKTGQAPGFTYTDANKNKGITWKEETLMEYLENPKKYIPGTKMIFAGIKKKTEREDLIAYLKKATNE
Experimental: Fluorescence emission of SS-19 (10 μM) was monitored in real time (Ex/Em=320 nm/420 nm) using Hitachi F-4500 fluorescence spectrophotometer. […] CL may potentiate the interaction between SS-19 and cytochrome c by serving as an anionic platform for the two cationic molecules.
The quenching by cytochrome c was not displaced by sequential additions of bovine serum albumin (500 μg/ml) (FIG. 13C, A+arrows).
SS-36 also contains the polarity-sensitive fluorescent amino acid aladan. […] Accordingly, aromatic-cationic peptides of the present disclosure are useful for the prevention or treatment of diseases or disorders characterized by dysregulation of cardiolipin and/or cytochrome c, and/or diseases or disorders characterized by dysregulation of the cardiolipin/cytochrome c interaction.
(§1) Interaction of SS peptides with horse heart cytochrome c in the absence or presence of free cardiolipin or cardiolipin/POPC (1:1) liposomes (prepared as described in Example 22) was examined by fluorescence quenching of [atn]SS-02 (λex/λem=320/420 nm) and [ald]SS-02 (λex/λem=360/510 nm) upon addition of cytochrome c (using a Hitachi F-4500 fluorescence spectrophotometer). The solvents used to dissolve cardiolipin and POPC had negligible effect on cytochrome c-dependent quenching of these peptides. All experiments were done in low ionic solution (deionized water) or 20 mM Hepes pH 7.4.

cytochrome c = cytochrome c (Equus caballus, UniProt P00004); experiment: Fluorescence quenching of labelled peptides by cytochrome c; assay type: binding, horse; design: from tissue; host or cells: horse heart; conditions: for change in λmax on quenching by cytochrome c / quenching of fluorescence by cytochrome c: Example 22; for quenching of fluorescence by cytochrome c: additions of cytochrome c (2 μM)
cytochrome c, sequence (P00004 2-105 limits assumed): as above
Experimental: Maximal fluorescence emission of SS-19 was monitored at 420 nm following excitation at 320 nm using Hitachi F-4500 fluorescence spectrophotometer.
The quenching by cytochrome c was not displaced by sequential additions of bovine serum albumin (FIG. 12C, A+arrows) (500 μg/ml). […] Accordingly, aromatic-cationic peptides of the present disclosure are useful for the prevention or treatment of diseases or disorders characterized by dysregulation of cytochrome c.
Fluorescence emission of SS-19 (10 μM) was monitored in real time (Ex/Em=320 nm/420 nm) using Hitachi F-4500 fluorescence spectrophotometer.
as §1

| Substance | increase in quantal yield on addition of CL ([1]; 1 μM peptide, 5 μg/ml CL, excitation 350 nm) | affinity compared among POPS, POPA, DPPG and cardiolipin ([1]; 1 μM peptide, 10 μg/mL phospholipid) | peptide fluorescence on addition of CL ([1]; CL 2.5 μg/ml) | emission maximum with cardiolipin after addition of cytochrome c [2] [nm] | emission maximum with cardiolipin before addition of cytochrome c [2] [nm] | quenching of fluorescence by cytochrome c in the presence of CL ([2]; CL 2.5 μg/ml, cytochrome c 2 μM) | change in λmax on quenching by cytochrome c (cytochrome c) | quenching of fluorescence by cytochrome c (cytochrome c) | shift in λmax on addition of CL ([1]; 1 μM peptide, CL 5-50 μg/ml, excitation 320 nm) | increase in quantal yield on addition of CL ([1]; 1 μM peptide, CL 5 to 50 μg/ml) [fold] | emission intensity on addition of cardiolipin ([1]; 1 μM peptide, deionized water (Example 21)) | peptide fluorescence on addition of CL ([1]; 10 μM peptide, CL 50 μg/ml, Ex/Em 320/420 nm) | quenching of the fluorescent signal ([2]; 2 μM cytochrome c, 1 μM peptide, 10 μg/mL cardiolipin, 420 nm) [%] | extent of quenching by cytochrome c with CL compared to without CL ([2]; 10 μM peptide, CL 50 μg/ml, cytochrome c 2 μM) | effect of cardiolipin on interaction between cytochrome c and peptide ([2]; free cardiolipin or cardiolipin liposomes) | dependence of interaction on amount of cytochrome c (cytochrome c) | quenching of the fluorescent signal (cytochrome c; 2 μM cytochrome c, 1 μM peptide, absence of cardiolipin, 420 nm) [%] | quenching of peptide fluorescence by cytochrome c (cytochrome c; 10 μM peptide, 2 μM cytochrome c, Ex/Em 320/420 nm) | displacement of cytochrome c quenching by bovine serum albumin (cytochrome c; BSA 500 μg/ml) |
| --- | --- | --- | --- | --- | --- | --- | --- | --- | --- | --- | --- | --- | --- | --- | --- | --- | --- | --- | --- |
| 2′,6′-Dmt-D-Arg-Ald-Lys-NH2 [SS-36] | more than 100 fold | Cardiolipin shows the highest affinity | increase in SS-36 fluorescence | 450 | 510 | dramatic quenching | no change in λmax | concentration-dependent quenching | – | – | – | – | – | – | – | – | – | – | – |
| 2′,6′-Dmt-D-Arg-Phe-(atn)Dap-NH2 [SS-19] | – | – | – | – | – | – | no change in λmax | concentration-dependent quenching | no significant shift in λmax | 2 | increased the emission intensity of [atn]SS-02 in a concentration-dependent manner | increase in SS-19 fluorescence | ~50 | larger extent of quenching | potentiated by either free cardiolipin or cardiolipin liposomes in a dose-dependent manner | linearly dependent on the amount of cytochrome c added | ~20 | similarly quenched by sequential addition of 2 μM cytochrome c; also recorded: immediate quenching of the fluorescence signal | not displaced |

— patent US10808008B2, “Aromatic-cationic peptides and uses of same” (Cornell University, priority 2012, dated 2020)
